According to PubChem BioAssay AID248 (DTP/NCI, 2004):
Where “and” joins values, the source holds several entries; their conditions need not be identical. Equal entries are not always repeated. Inconclusive results and toxic doses are left out. Cut-off read from the data, not from the text of the source: active = T/C of 150% or more; inactive = T/C below 125%.

System: L1210 leukemia ip in BDF1 mice, survival T/C
Assay: NCI In Vivo Anticancer Drug Screen. Data for tumor model L1210 Leukemia (intraperitoneal) in B6D2F1 (BDF1) mice
Conditions: endpoint: mean survival time, higher = longer survival
How it was run: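 Transplantable tumor model; survival measured in treated vs vehicle control mice. Value = treated/control.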

[1] = dose: 50.0 mg/kg/injection, schedule: Q01DX009 (ip), vehicle: Klucel (hydroxypropylcellulose) (HPC)
[2] = dose: 100.0 mg/kg/injection, schedule: Q01DX009 (ip), vehicle: Klucel (hydroxypropylcellulose) (HPC)
[3] = dose: 100.0 mg/kg/injection, schedule: Q04DX003 (ip), vehicle: Klucel (hydroxypropylcellulose) (HPC)
[4] = dose: 200.0 mg/kg/injection, schedule: Q01DX009 (ip), vehicle: Klucel (hydroxypropylcellulose) (HPC)
[5] = dose: 200.0 mg/kg/injection, schedule: Q04DX003 (ip), vehicle: Klucel (hydroxypropylcellulose) (HPC)
[6] = dose: 400.0 mg/kg/injection, schedule: Q01DX009 (ip), vehicle: Klucel (hydroxypropylcellulose) (HPC)
[7] = dose: 400.0 mg/kg/injection, schedule: Q04DX003 (ip), vehicle: Klucel (hydroxypropylcellulose) (HPC)
[8] = dose: 100.0 mg/kg/injection, schedule: Q04DX003 (ip), vehicle: saline
[9] = dose: 200.0 mg/kg/injection, schedule: Q04DX003 (ip), vehicle: saline
[10] = dose: 400.0 mg/kg/injection, schedule: Q04DX003 (ip), vehicle: saline
[11] = dose: 50.0 mg/kg/injection, schedule: Q01DX001 (ip), vehicle: carboxymethylcellulose (CMC)
[12] = dose: 50.0 mg/kg/injection, schedule: Q01DX001 (ip), vehicle: saline
[13] = dose: 100.0 mg/kg/injection, schedule: Q01DX001 (ip), vehicle: saline
[14] = dose: 200.0 mg/kg/injection, schedule: Q01DX001 (ip), vehicle: carboxymethylcellulose (CMC)
[15] = dose: 200.0 mg/kg/injection, schedule: Q01DX001 (ip), vehicle: saline
[16] = dose: 400.0 mg/kg/injection, schedule: Q01DX001 (ip), vehicle: carboxymethylcellulose (CMC)
[17] = dose: 400.0 mg/kg/injection, schedule: Q01DX001 (ip), vehicle: saline
[18] = dose: 12.5 mg/kg/injection, schedule: Q01DX009 (ip), vehicle: Klucel (hydroxypropylcellulose) (HPC)
[19] = dose: 25.0 mg/kg/injection, schedule: Q01DX009 (ip), vehicle: Klucel (hydroxypropylcellulose) (HPC)

Measured: T/C

COc1ccc(C)cc1NC(=O)Nc1cc(Cl)ccc1C
inactive: dose: 100.0 mg/kg/injection, schedule: Q01DX001 (ip), vehicle: saline with Tween-80 93 % of control | dose: 100.0 mg/kg/injection, schedule: Q01DX009 (ip), vehicle: saline with Tween-80 95 % of control and 112 % of control | dose: 100.0 mg/kg/injection, schedule: Q04DX002 (ip), vehicle: saline with Tween-80 102 % of control and 87 % of control | dose: 100.0 mg/kg/injection, schedule: Q04DX003 (ip), vehicle: saline with Tween-80 90 % of control | dose: 200.0 mg/kg/injection, schedule: Q01DX001 (ip), vehicle: saline with Tween-80 93 % of control | dose: 200.0 mg/kg/injection, schedule: Q01DX009 (ip), vehicle: saline with Tween-80 102 % of control and 88 % of control | dose: 200.0 mg/kg/injection, schedule: Q04DX002 (ip), vehicle: saline with Tween-80 87 % of control | dose: 200.0 mg/kg/injection, schedule: Q04DX003 (ip), vehicle: saline with Tween-80 101 % of control | dose: 400.0 mg/kg/injection, schedule: Q01DX009 (ip), vehicle: saline with Tween-80 93 % of control and 91 % of control | dose: 400.0 mg/kg/injection, schedule: Q04DX002 (ip), vehicle: saline with Tween-80 95 % of control and 87 % of control | dose: 400.0 mg/kg/injection, schedule: Q04DX003 (ip), vehicle: saline with Tween-80 94 % of control

O=[N+]([O-])c1ccc(S(=O)(=O)N2CCN(S(=O)(=O)c3ccc([N+](=O)[O-])cc3)C2)cc1
inactive: [1] 93 % of control | [2] 87 % of control and 91 % of control | [3] 91 % of control | [4] 93 % of control | [5] 94 % of control | [6] 101 % of control | [7] 98 % of control

Cc1ccc(C)c(NC(=O)OCCOc2ccccc2)c1
inactive: [2] 101 % of control | [8] 103 % of control | [4] 90 % of control | [9] 104 % of control | [6] 91 % of control | [10] 101 % of control

Cc1ccc2c([nH]1)c(C)cc1nc3ccccc3c12
inactive: [11] 103 % of control | [12] 95 % of control | [13] 101 % of control | [14] 95 % of control | [15] 110 % of control | [16] 104 % of control | [17] 101 % of control

CCCCCCCCCCSc1ncnc2c1ncn2CO
inactive: [12] 91 % of control | [13] 101 % of control | [15] 117 % of control | [17] 120 % of control

COc1ccc(OC)c(/C=C/c2ccc3ccccc3[n+]2C)c1
inactive: dose: 5.0 mg/kg/injection, schedule: Q04DX003 (ip), vehicle: saline with Tween-80 110 % of control | dose: 10.0 mg/kg/injection, schedule: Q04DX003 (ip), vehicle: saline with Tween-80 111 % of control | dose: 20.0 mg/kg/injection, schedule: Q04DX003 (ip), vehicle: saline with Tween-80 117 % of control

COc1cc(N)ccn1
inactive: dose: 100.0 mg/kg/injection, schedule: Q04DX003 (ip), vehicle: acetone 95 % of control | dose: 200.0 mg/kg/injection, schedule: Q04DX003 (ip), vehicle: acetone 94 % of control | dose: 400.0 mg/kg/injection, schedule: Q04DX003 (ip), vehicle: acetone 94 % of control

Cn1c(CO)nc2c1c(=O)[nH]c(=O)n2C
inactive: dose: 100.0 mg/kg/injection, schedule: Q01DX001 (ip), vehicle: other 98 % of control | dose: 200.0 mg/kg/injection, schedule: Q01DX001 (ip), vehicle: other 98 % of control | dose: 400.0 mg/kg/injection, schedule: Q01DX001 (ip), vehicle: other 95 % of control

O=c1/c(=C\c2ccc(Cl)c(Cl)c2)sc2n1CCN=2
inactive: [13] 86 % of control | [17] 93 % of control

N=c1ccccn1CC(Cl)COc1ccccc1 (centres undefined)
inactive: [13] 104 % of control

Cc1ccc(S(=O)(=O)N=S(C)C)cc1
inactive: [11] 104 % of control | dose: 100.0 mg/kg/injection, schedule: Q01DX001 (ip), vehicle: carboxymethylcellulose (CMC) 104 % of control | [14] 98 % of control | [16] 93 % of control | dose: 800.0 mg/kg/injection, schedule: Q01DX001 (ip), vehicle: carboxymethylcellulose (CMC) 105 % of control | dose: 1200.0 mg/kg/injection, schedule: Q01DX001 (ip), vehicle: carboxymethylcellulose (CMC) 103 % of control | dose: 1600.0 mg/kg/injection, schedule: Q01DX001 (ip), vehicle: carboxymethylcellulose (CMC) 109 % of control

CCCCCCC(=O)N(CC)C(=NCC)c1ccc(NC(=O)c2ccc(C(=O)Nc3ccc(C(=NCC)N(CC)C(=O)CCCCCC)cc3)cc2)cc1
inactive: dose: 3.75 mg/kg/injection, schedule: Q01DX015 (ip), vehicle: methylcellulose (MC) 98 % of control | dose: 7.5 mg/kg/injection, schedule: Q01DX015 (ip), vehicle: methylcellulose (MC) 101 % of control | dose: 15.0 mg/kg/injection, schedule: Q01DX015 (ip), vehicle: methylcellulose (MC) 98 % of control | dose: 30.0 mg/kg/injection, schedule: Q01DX015 (ip), vehicle: methylcellulose (MC) 90 % of control | dose: 62.0 mg/kg/injection, schedule: Q01DX015 (ip), vehicle: methylcellulose (MC) 93 % of control | dose: 125.0 mg/kg/injection, schedule: Q01DX015 (ip), vehicle: methylcellulose (MC) 90 % of control | dose: 250.0 mg/kg/injection, schedule: Q01DX015 (ip), vehicle: methylcellulose (MC) 87 % of control | dose: 500.0 mg/kg/injection, schedule: Q01DX015 (ip), vehicle: methylcellulose (MC) 86 % of control

O=C(Nc1ccc(Cl)c(Cl)c1)Nc1cccc2nsnc12
inactive: [2] 92 % of control | [4] 92 % of control | [6] 92 % of control

c1ccc2c(c1)CCc1ccccc1CN(CCNC1=NCCN1)C2
inactive: dose: 6.25 mg/kg/injection, schedule: Q01DX009 (ip), vehicle: Klucel (hydroxypropylcellulose) (HPC) 96 % of control | [18] 91 % of control | [19] 91 % of control

NCCN1C(c2ccccc2)C1c1ccccc1 (centres undefined)
inactive: dose: 50.0 mg/kg/injection, schedule: Q04DX003 (ip), vehicle: saline 94 % of control | [8] 94 % of control and 105 % of control | [9] 103 % of control | [10] 100 % of control

O=c1c(Br)c[nH]cc1Br
inactive: [18] 91 % of control | [19] 111 % of control | [1] 91 % of control | [2] 98 % of control

S=C(Nc1ccccc1)Nc1ccc2ccccc2c1
inactive: [3] 100 % of control | [5] 94 % of control | [7] 110 % of control

O=C(Nc1cccc(C2=NCCN2)c1)c1ccc(C(=O)Nc2cccc(C3=NCCN3)c2)cc1
inactive: dose: 2.5 mg/kg/injection, schedule: Q01DX Z (ip), vehicle: saline 95 % of control | dose: 5.0 mg/kg/injection, schedule: Q01DX Z (ip), vehicle: saline 111 % of control

C=CCCCCCCCCC(=O)N/N=C(/C)c1ccc(C)cc1
inactive: dose: 100.0 mg/kg/injection, schedule: Q04DX002 (ip), vehicle: Klucel (hydroxypropylcellulose) (HPC) 103 % of control | dose: 200.0 mg/kg/injection, schedule: Q04DX002 (ip), vehicle: Klucel (hydroxypropylcellulose) (HPC) 118 % of control | dose: 400.0 mg/kg/injection, schedule: Q04DX002 (ip), vehicle: Klucel (hydroxypropylcellulose) (HPC) 92 % of control
